Assay in all cases: GloSensor cAMP luminescence in HEK293T
What all share (type): cell-based
Holding throughout (details): agonist; co-expressed Golf alpha and RTP1S; N = 12

Experiment [1] concerns the target T1, Olfr1258 (mOR232-3) (Mus musculus, UniProt Q8VGN6).
T1 construct: gene Or4c10; full-length from mouse genomic DNA in pCI-neo; N-terminal rhodopsin and myc tags; HEK293T with co-transfected Golf alpha, RTP1S and GloSensor-22F

Experiment [2] concerns the target T2, Olfr168 (mOR271-1) (Mus musculus, UniProt A0PK36).
T2 construct: full-length from mouse genomic DNA in pCI-neo; N-terminal rhodopsin and myc tags; HEK293T with co-transfected Golf alpha, RTP1S and GloSensor-22F
T2 sequence (A0PK36 1-312): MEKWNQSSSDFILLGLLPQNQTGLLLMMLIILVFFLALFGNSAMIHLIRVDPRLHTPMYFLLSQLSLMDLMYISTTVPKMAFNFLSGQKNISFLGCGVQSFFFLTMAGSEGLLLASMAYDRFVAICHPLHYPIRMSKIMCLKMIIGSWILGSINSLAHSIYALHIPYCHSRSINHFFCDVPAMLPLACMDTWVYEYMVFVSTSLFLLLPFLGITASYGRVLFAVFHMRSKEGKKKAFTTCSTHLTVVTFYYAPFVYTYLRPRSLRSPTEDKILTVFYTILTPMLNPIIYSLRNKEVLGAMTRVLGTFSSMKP

In experiment [3] the target is T3, Olfr45 (mOR253-2) (Mus musculus, UniProt A0JLW4).
T3 construct: full-length from mouse genomic DNA in pCI-neo; N-terminal rhodopsin and myc tags; HEK293T with co-transfected Golf alpha, RTP1S and GloSensor-22F
T3 sequence (A0JLW4 1-311): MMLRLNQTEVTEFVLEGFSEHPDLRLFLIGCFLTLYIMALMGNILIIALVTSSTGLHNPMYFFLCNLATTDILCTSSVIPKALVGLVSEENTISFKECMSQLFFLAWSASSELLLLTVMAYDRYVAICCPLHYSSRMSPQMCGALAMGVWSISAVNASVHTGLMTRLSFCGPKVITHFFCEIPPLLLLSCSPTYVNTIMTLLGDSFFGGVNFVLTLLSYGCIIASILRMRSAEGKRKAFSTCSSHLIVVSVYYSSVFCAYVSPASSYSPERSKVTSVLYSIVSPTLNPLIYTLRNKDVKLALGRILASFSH

Experiment [4] concerns the target T4, Olfr166 (mOR270-1) (Mus musculus, UniProt Q0VEL6).
T4 construct: full-length from mouse genomic DNA in pCI-neo; N-terminal rhodopsin and myc tags; HEK293T with co-transfected Golf alpha, RTP1S and GloSensor-22F
T4 sequence (Q0VEL6 1-312): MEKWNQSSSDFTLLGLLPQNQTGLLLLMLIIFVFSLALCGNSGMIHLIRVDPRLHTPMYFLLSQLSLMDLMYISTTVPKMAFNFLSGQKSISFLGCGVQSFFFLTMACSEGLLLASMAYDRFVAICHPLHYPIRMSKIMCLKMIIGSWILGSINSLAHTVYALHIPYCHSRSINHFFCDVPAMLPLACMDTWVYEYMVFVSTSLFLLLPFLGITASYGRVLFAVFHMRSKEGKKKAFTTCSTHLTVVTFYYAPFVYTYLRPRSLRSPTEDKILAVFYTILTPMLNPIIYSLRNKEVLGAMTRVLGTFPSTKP

T1 sequence (Q8VGN6 1-311): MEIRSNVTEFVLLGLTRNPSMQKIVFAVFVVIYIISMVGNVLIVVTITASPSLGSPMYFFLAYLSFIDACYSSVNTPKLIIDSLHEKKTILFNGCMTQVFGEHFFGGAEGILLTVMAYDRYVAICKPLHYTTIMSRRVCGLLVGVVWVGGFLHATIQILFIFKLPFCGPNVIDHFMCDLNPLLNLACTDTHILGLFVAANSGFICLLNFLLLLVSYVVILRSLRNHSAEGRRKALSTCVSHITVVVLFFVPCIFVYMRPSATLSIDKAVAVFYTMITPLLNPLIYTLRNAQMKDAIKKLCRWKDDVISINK

In the case of `CCC(C)=O` [2-butanone], the “GloSensor cAMP luminescence in HEK293T” value in experiment [1] is “Olfr1258 was activated by 2-butanone”.

The compound `CCCC(C)=O` [2-pentanone] yielded an EC50 in experiment [2] of 2100 ± 600 µM.

Turning to `c1ccncc1` [pyridine], the “GloSensor cAMP luminescence in HEK293T” value in experiment [3] is “both Olfr45 and Olfr166 were activated by pyridine”; in experiment [4], “both Olfr45 and Olfr166 were activated by pyridine”.

By EC50 is commonly meant the midpoint of the concentration-response curve. Read a low EC50 as greater potency.

Source of the values: publication PMC4735795, “Deciphering the Receptor Repertoire Encoding Specific Odorants by Time-Lapse Single-Cell Array Cytometry” (Scientific Reports, 2016).
